# US20090062369A1, “USE OF SECRETORY PHOSPHOLIPASE A2 (SPLA2) INHIBITORS TO DECREASE SPLA2 LEVELS” (priority 2007, published 2009)
# Test system: serum sPLA2
# Test: Effect of twice-a-day oral A-002 on serum sPLA2 levels in subjects with stable coronary artery disease (Example 6)
# Format: in vivo, human
# Method: The protocol for preparing standard curve, test, and quality control samples for use in the assay disclosed herein is set forth in Example 5. Samples are prepared according to this protocol, then loaded in duplicate onto a plate (Cayman catalog no. 485002 or equivalent) that has been pre-coated with a monoclonal sPLA2 antibody (“capture antibody”) that specifically binds sPLA2. In certain embodiments, the capture antibody may interact with a specific form of sPLA2, such as for example sPLA2 type IIA.
# sPLA2 acetylcholinesterase:Fab′ conjugate (AChE:Fab′) (“conjugate”) (Cayman catalog no. 485000 or equivalent) is reconstituted in EIA buffer (Cayman catalog no. 400060 or equivalent). Cayman EIA buffer is 1M phosphate, pH 7.0, 1% BSA, 4M NaCl, 10 mM EDTA, and 0.1% sodium azide. Reconstituted conjugate is added to each well of the plate. The conjugate binds a different sPLA2 epitope than the capture antibody, allowing the capture antibody and the conjugate to form a “sandwich” that is immobilized on the plate. Excess reagents are washed away, and the plate is covered and incubated overnight at 2-8° C.
# Prior to development, the wells are washed five to six times with wash buffer (Cayman catalog no. 400062 or equivalent). To develop the plate, Ellman's Reagent (Cayman catalog no. 400050 or equivalent) is reconstituted in water and added to each well according to manufacturer instructions. The reconstituted Ellman's Reagent must be used the same day it is prepared because it is unstable. Ellman's Reagent contains an AChE substrate. Specifically, Ellman's Reagent contains acetylthiocholine and 5,5′-dithio-bis-(2-nitrobenzoic acid). Hydrolysis of acetylthiocholine by acetylcholinesterase produces thiocholine, which reacts with 5,5′-dithio-bis-(2-nitrobenzoic acid) to produce 5-thio-2-nitrobenzoic acid. 5-thio-2-nitrobenzoic acid has a strong absorbance at 412 nm. The intensity of absorbance at this wavelength is directly proportional to the concentration of bound conjugate, which is in turn is directly proportional to the concentration of sPLA2 present (Absorbance a [AChE:Fab′ conjugate] α [sPLA2]). During the development step, the plate is shaken, preferably in the dark. In certain embodiments the development time for the assay is 0.5 to 3 hours, preferably 1 to 1.5 hours. At the end of the development period, the high sPLA2 standards should have greater yellow color development than the zero standards. Absorbance of each well is measured at 400-420 nm using a micro-well plate reader. In certain embodiments, absorbance is measured at about 405 nm.
# Absorbance readings for duplicate wells are averaged, and the relative standard deviation and % CV are calculated. Standard curve data are used to generate a four parameter curve, and quality control and test samples are measured against the appropriate standard curve (i.e., the standard curve with the same serum content). In order for a test to be considered valid, variation between duplicate wells should be no more than about 25%, and negative controls (blanks) for each standard curve should have a mean absorbance of less than about 0.3.
# The method disclosed herein for measuring sPLA2 levels in serum was utilized to determine the effect of administering certain sPLA2 inhibitors on sPLA2 levels in 84 human subjects. The subjects included 24 subjects with diabetes, 32 subjects with metabolic syndrome, and 75 subjects receiving statin treatment. Subjects were administered the sPLA2 inhibitor A-002, a prodrug form of A-001, twice a day at varying dosages from 50 to 500 mg. The structures of A-002and A-001 are set forth below. At two weeks and four weeks after the first administration, sPLA2 levels were measured and compared to pre-administration baseline levels.
# 84 subjects with stable coronary artery disease were randomized to receive placebo or A-002 via oral administration twice a day over a four week administration period. […]
# [1] = A-002 (500 mg), non-statin subgroup of ITT population
# [2] = A-002 Total (all dose groups), ITT subjects exhibiting at least 3 out of 5 metabolic syndrome criteria
# [3] = A-002 Total (all dose groups), non-statin subgroup of ITT population
# [4] = Total (all doses), ITT population
# [5] = Total (all doses), diabetes subgroup of ITT population
# [6] = Total (all doses), non-diabetes subgroup of ITT population
# [7] = Total (all doses), statin subgroup of ITT population
smiles,measurement,setting,value
"CCc1c(C(=O)C(N)=O)c2c(OCC(=O)OC)cccc2n1Cc1ccccc1 [A-002, [[3-(2-Amino-1,2-dioxoethyl)-2-ethyl-1-(phenylmethyl)-1H-indol-4-yl]oxy]acetic acid methyl ester]","sPLA2 level, Week 4, Range","A-002 (500 mg), ITT subjects exhibiting at least 3 out of 5 metabolic syndrome criteria",0.05 to 0.10 ng/mL
same,"sPLA2 level, Baseline, Mean",[1],2.30 ng/mL
same,"sPLA2 level, Baseline, Median",[1],2.30 ng/mL
same,"sPLA2 level, Baseline, Range",[1],1.80 to 2.80 ng/mL
same,"sPLA2 level, Change from baseline at week 2, Mean",[1],-2.25 ng/mL
same,"sPLA2 level, Change from baseline at week 2, Median",[1],-2.25 ng/mL
same,"sPLA2 level, Change from baseline at week 2, Range",[1],-2.75 to -1.75 ng/mL
same,"sPLA2 level, Change from baseline at week 4, Mean",[1],-2.08 ng/mL
same,"sPLA2 level, Change from baseline at week 4, Median",[1],-2.08 ng/mL
same,"sPLA2 level, Change from baseline at week 4, Range",[1],-2.40 to -1.75 ng/mL
same,"sPLA2 level, Week 2, Mean",[1],0.05 ng/mL
same,"sPLA2 level, Week 2, Median",[1],0.05 ng/mL
same,"sPLA2 level, Week 2, Range",[1],0.05 to 0.05 ng/ml
same,"sPLA2 level, Week 4, Mean",[1],0.23 ng/mL
same,"sPLA2 level, Week 4, Median",[1],0.23 ng/mL
same,"sPLA2 level, Week 4, Range",[1],0.05 to 0.40 ng/mL
same,"sPLA2 level, Baseline, Mean",[2],3.17 ng/mL
same,"sPLA2 level, Baseline, Median",[2],2.70 ng/mL
same,"sPLA2 level, Baseline, Range",[2],0.05 to 8.80 ng/mL
same,"sPLA2 level, Change from baseline at week 2, Mean",[2],-2.41 ng/mL
same,"sPLA2 level, Change from baseline at week 2, Median",[2],-2.45 ng/mL
same,"sPLA2 level, Change from baseline at week 2, Range",[2],−5.30 to +2.85 ng/ml
same,"sPLA2 level, Change from baseline at week 4, Mean",[2],-2.76 ng/mL
same,"sPLA2 level, Change from baseline at week 4, Median",[2],-2.30 ng/mL
same,"sPLA2 level, Change from baseline at week 4, Range",[2],-6.40 to 0.00 ng/mL
same,"sPLA2 level, Week 2, Mean",[2],0.65 ng/mL
same,"sPLA2 level, Week 2, Median",[2],0.30 ng/mL
same,"sPLA2 level, Week 2, Range",[2],0.05 to 4.00 ng/mL
same,"sPLA2 level, Week 4, Mean",[2],0.43 ng/mL
same,"sPLA2 level, Week 4, Median",[2],0.25 ng/mL
same,"sPLA2 level, Week 4, Range",[2],0.05 to 2.40 ng/mL
same,"sPLA2 level, Baseline, Mean",[3],2.92 ng/mL
same,"sPLA2 level, Baseline, Median",[3],2.80 ng/mL
same,"sPLA2 level, Baseline, Range",[3],1.80 to 4.90 ng/mL
same,"sPLA2 level, Change from baseline at week 2, Mean",[3],-2.13 ng/mL
same,"sPLA2 level, Change from baseline at week 2, Median",[3],-2.00 ng/mL
same,"sPLA2 level, Change from baseline at week 2, Range",[3],-2.75 to -1.75 ng/mL
same,"sPLA2 level, Change from baseline at week 4, Mean",[3],-2.49 ng/mL
same,"sPLA2 level, Change from baseline at week 4, Median",[3],-2.20 ng/mL
same,"sPLA2 level, Change from baseline at week 4, Range",[3],-4.40 to -1.70 ng/mL
same,"sPLA2 level, Week 2, Mean",[3],0.58 ng/mL
same,"sPLA2 level, Week 2, Median",[3],0.48 ng/mL
same,"sPLA2 level, Week 2, Range",[3],0.05 to 1.30 ng/mL
same,"sPLA2 level, Week 4, Mean",[3],0.65 ng/mL
same,"sPLA2 level, Week 4, Median",[3],0.50 ng/mL
same,"sPLA2 level, Week 4, Range",[3],0.05 to 1.20 ng/mL
same,serum sPLA2 levels,"ITT population, stable coronary artery disease, A-002 50, 100, 250 or 500 mg oral twice a day, end of weeks two and four vs baseline, dose-independent",decreased serum sPLA2 levels
same,"sPLA2 Change from baseline at week 2, Mean",[4],-2.35 ng/mL
same,"sPLA2 Change from baseline at week 2, Median",[4],-2.40 ng/mL
same,"sPLA2 Change from baseline at week 2, Range",[4],−5.30 to +2.85 ng/ml
same,"sPLA2 Change from baseline at week 4, Mean",[4],-2.53 ng/mL
same,"sPLA2 Change from baseline at week 4, Median",[4],-2.35 ng/mL
same,"sPLA2 Change from baseline at week 4, Range",[4],-6.40 to 0.20 ng/mL
same,"sPLA2 level, Baseline, Mean",[4],2.99 ng/mL
same,"sPLA2 level, Baseline, Median",[4],2.70 ng/mL
same,"sPLA2 level, Baseline, Range",[4],0.05 to 8.80 ng/mL
same,"sPLA2 level, Week 2, Mean",[4],0.60 ng/mL
same,"sPLA2 level, Week 2, Median",[4],0.30 ng/mL
same,"sPLA2 level, Week 2, Range",[4],0.05 to 4.40 ng/mL
same,"sPLA2 level, Week 4, Mean",[4],0.51 ng/mL
same,"sPLA2 level, Week 4, Median",[4],0.35 ng/mL
same,"sPLA2 level, Week 4, Range",[4],0.05 to 2.40 ng/mL
same,"sPLA2 Change from baseline at week 2, Mean",[5],-2.03 ng/mL
same,"sPLA2 Change from baseline at week 2, Median",[5],-2.40 ng/mL
same,"sPLA2 Change from baseline at week 2, Range",[5],−4.80 to +2.85 ng/ml
same,"sPLA2 Change from baseline at week 4, Mean",[5],-2.31 ng/mL
same,"sPLA2 Change from baseline at week 4, Median",[5],-1.90 ng/mL
same,"sPLA2 Change from baseline at week 4, Range",[5],−5.70 to +0.20 ng/ml
same,"sPLA2 level, Baseline, Mean",[5],2.91 ng/mL
same,"sPLA2 level, Baseline, Median",[5],2.75 ng/mL
same,"sPLA2 level, Baseline, Range",[5],0.05 to 6.00 ng/mL
same,"sPLA2 level, Week 2, Mean",[5],0.67 ng/mL
same,"sPLA2 level, Week 2, Median",[5],0.50 ng/mL
same,"sPLA2 level, Week 2, Range",[5],0.05 to 2.90 ng/mL
same,"sPLA2 level, Week 4, Mean",[5],0.53 ng/mL
same,"sPLA2 level, Week 4, Median",[5],0.50 ng/mL
same,"sPLA2 level, Week 4, Range",[5],0.05 to 1.50 ng/mL
same,"sPLA2 Change from baseline at week 2, Mean",[6],-2.48 ng/mL
same,"sPLA2 Change from baseline at week 2, Median",[6],-2.40 ng/mL
same,"sPLA2 Change from baseline at week 2, Range",[6],-5.30 to -0.40 ng/mL
same,"sPLA2 Change from baseline at week 4, Mean",[6],-2.63 ng/mL
same,"sPLA2 Change from baseline at week 4, Median",[6],-2.45 ng/mL
same,"sPLA2 Change from baseline at week 4, Range",[6],-6.40 to -0.55 ng/mL
same,"sPLA2 level, Baseline, Mean",[6],3.02 ng/mL
same,"sPLA2 level, Baseline, Median",[6],2.60 ng/mL
same,"sPLA2 level, Baseline, Range",[6],0.60 to 8.80 ng/mL
same,"sPLA2 level, Week 2, Mean",[6],0.57 ng/mL
same,"sPLA2 level, Week 2, Median",[6],0.30 ng/mL
same,"sPLA2 level, Week 2, Range",[6],0.05 to 4.40 ng/mL
same,"sPLA2 level, Week 4, Mean",[6],0.51 ng/mL
same,"sPLA2 level, Week 4, Median",[6],0.30 ng/mL
same,"sPLA2 level, Week 4, Range",[6],0.05 to 2.40 ng/mL
same,"sPLA2 Change from baseline at week 2, Mean",[7],-2.37 ng/mL
same,"sPLA2 Change from baseline at week 2, Median",[7],-2.43 ng/mL
same,"sPLA2 Change from baseline at week 2, Range",[7],−5.30 to +2.85 ng/ml
same,"sPLA2 Change from baseline at week 4, Mean",[7],-2.53 ng/mL
same,"sPLA2 Change from baseline at week 4, Median",[7],-2.43 ng/mL
same,"sPLA2 Change from baseline at week 4, Range",[7],−6.40 to +0.20 ng/ml
same,"sPLA2 level, Baseline, Mean",[7],3.00 ng/mL
same,"sPLA2 level, Baseline, Median",[7],2.70 ng/mL
same,"sPLA2 level, Baseline, Range",[7],0.05 to 8.80 ng/mL
same,"sPLA2 level, Week 2, Mean",[7],0.60 ng/mL
same,"sPLA2 level, Week 2, Median",[7],0.30 ng/mL
same,"sPLA2 level, Week 2, Range",[7],0.05 to 4.40 ng/mL
same,"sPLA2 level, Week 4, Mean",[7],0.50 ng/mL
same,"sPLA2 level, Week 4, Median",[7],0.30 ng/mL
same,"sPLA2 level, Week 4, Range",[7],0.05 to 2.40 ng/mL
same,sPLA2 levels compared to pre-administration baseline,"all subject subpopulations (diabetic/non-diabetic, metabolic syndrome/non-metabolic syndrome, statin/non-statin), all dosages 50 to 500 mg twice a day, two and four weeks",substantial decrease in sPLA2 levels
same,serum sPLA2 levels,"diabetic and non-diabetic subpopulations, A-002 50-500 mg oral twice a day, weeks two and four",decrease was observed
same,serum sPLA2 levels,"metabolic syndrome subpopulation, A-002 50-500 mg oral twice a day, weeks two and four",decrease was observed
same,serum sPLA2 levels,"statin and non-statin subpopulations, A-002 50-500 mg oral twice a day, weeks two and four",decrease was observed
